The assay has as its system AMPA receptor.
Where [1] appears, read: Table 1, primary culture of rat embryo cerebral cortex nerve cells, 2 μM AMPA, 1 μM MK-801.
Setting [2] is: Table 3, primary culture of rat embryo cerebral cortex nerve cells, 2 μM AMPA, 1 μM MK-801.
[3] abbreviates: Table 2, suppression of AMPA-induced calcium influx into nerve cells.

Structures can show the parent of a compound that is named as a salt. Where two headings read alike, the source gives them in different places.

In general, IC50 refers to the concentration that gives 50% inhibition.
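Note: primary rat embryonic cortical neurons grown on an astrocyte layer in 96-well plates, used after at least 8 to 10 days in culture, Fura2-AM fluorescence ratio at 340/380 nm excitation.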

The molecule `N#Cc1ccccc1-c1cc(-c2ccccn2)c[nH]c1=O` [Example 6, 3-(2-Cyanophenyl)-5-(2-pyridyl)-2(1H)-pyridone] displayed an IC50 under setting [1] of 9300 nM.

The molecule `N#Cc1ccccc1-c1cc(NC(=O)Nc2ccccc2)cn(-c2ccccc2)c1=O` [Example 307, 3-(2-Cyanophenyl)-1-phenyl-5-[N-(N′-phenylureylenyl)]-1,2-dihydropyridin-2-one] gave a concentration for half-maximal inhibition (IC50) under setting [2] of 2000 nM.

Consider `O=c1c(-c2cscn2)cc(-c2ccccn2)cn1-c1ccccc1` [Example 267, 1-Phenyl-5-(2-pyridyl)-3-(thiazol-4-yl)-1,2-dihydropyridin-2-one], for which the IC50 under setting [3] is 1000 nM.

For `O=c1c(-c2ccc(Cl)nc2)cc(-c2ccccn2)cn1-c1ccccc1` [Example 287, 3-(2-Chloropyridin-5-yl)-5-(2-pyridyl)-1-phenyl-1,2-dihydropyridin-2-one], the IC50 under setting [3] stood at 5600 nM.

On to `N#Cc1ccccc1-c1cc(-c2cccc3ccccc23)cn(-c2cccnc2)c1=O` [Example 210, 3-(2-Cyanophenyl)-5-(1-naphthyl)-1-(3-pyridyl)-1,2-dihydropyridin-2-one], for which the IC50 under setting [3] is 5200 nM.

`CS(=O)(=O)Nc1cccc(-c2cc(-c3ccccn3)cn(-c3ccccc3)c2=O)c1` [Example 228, 3-[3-(Methanesulfonylamino)phenyl]-1-phenyl-5-(2-pyridyl)-1,2-dihydropyridin-2-one]: under setting [3], the half-inhibitory concentration (IC50) was 2700 nM.

Molecule `N#Cc1ccccc1-c1cc(-c2ccccn2)cn(-c2cccc(CO)c2)c1=O` [Example 21, 3-(2-Cyanophenyl)-5-(2-pyridyl)-1-(3-hydroxymethylphenyl)-1,2-dihydropyridin-2-one] had an IC50 under setting [1] of 30 nM.

On to `CN(C)Cc1ccccc1-c1cc(-c2ccccn2)cn(-c2ccccc2)c1=O` [Example 154, 3-(2-Dimethylaminomethylphenyl)-5-(2-pyridyl)-1-phenyl-1,2-dihydropyridin-2-one dihydrochloride], for which the IC50 under setting [3] came out at 5000 nM.

Molecule `O=c1c(-c2cccnc2F)cc(-c2ccccc2)cn1-c1cccnc1` [Example 87, 3-(2-Fluoro-3-pyridyl)-5-phenyl-1-(3-pyridyl)-1,2-dihydropyridin-2-one] registered a concentration for half-maximal inhibition (IC50) under setting [1] of 1200 nM.

Under setting [1], `N#Cc1ccccc1-c1cc(-c2ccccn2)cn(-c2cccc(C=O)c2)c1=O` [Example 20, 3-(2-Cyanophenyl)-5-(2-pyridyl)-1-(3-formylphenyl)-1,2-dihydropyridin-2-one] displayed an IC50 of 40 nM.

Regarding `CC(C)N(CCOc1cccc(-n2cc(-c3ccccn3)cc(-c3ccccc3C#N)c2=O)c1)C(C)C` [Example 242, 3-(2-Cyanophenyl)-1-[3-(diisopropylaminoethoxy)phenyl]-5-(2-pyridyl)-1,2-dihydropyridin-2-one], under setting [3], the half-inhibitory concentration (IC50) was determined as 500 nM.

Regarding `N#CCc1ccccc1-n1cc(-c2ccccn2)cc(-c2ccccc2C#N)c1=O` [Example 151, 3-(2-Cyanophenyl)-5-(2-pyridyl)-1-(2-cyanomethylphenyl)-1,2-dihydropyridin-2-one], the IC50 under setting [3] was 300 nM.

`CS(=O)(=O)Nc1ccccc1-c1cc(-c2ccccc2C#N)c(=O)n(-c2ccccc2)c1` [Example 3, 3-(2-Cyanophenyl)-5-(2-methylsulfonylaminophenyl)-1-phenyl-1,2-dihydropyridin-2-one] returned an IC50 under setting [1] of 300 nM.

The molecule `CN(C)CCOc1ccc(-n2cc(-c3ccccn3)cc(-c3ccccc3Cl)c2=O)cc1` [Example 19, 3-(2-Chlorophenyl)-5-(2-pyridyl)-1-(4-dimethylaminoethoxyphenyl)-1,2-dihydropyridin-2-one] registered an IC50 under setting [1] of 80 nM.

`CNC(=O)c1cccc(-n2cc(-c3ccccn3)cc(-c3ccccc3C#N)c2=O)c1` [Example 15, 3-(2-Cyanophenyl)-5-(2-pyridyl)-1-(3-methylaminocarbonylphenyl)-1,2-dihydropyridin-2-one] displayed an IC50 under setting [1] of 50 nM.

Consider `O=c1c(-c2ccc(F)nc2)cc(-c2ccccn2)cn1-c1ccccc1` [Example 288, 3-(2-Fluoropyridin-5-yl)-5-(2-pyridyl)-1-phenyl-1,2-dihydropyridin-2-one], for which, under setting [3], the 50% inhibitory concentration (IC50) amounted to 1200 nM.

Under setting [1], `N#Cc1cccc(-c2cc(-c3ccccc3)cn(-c3cccnc3)c2=O)n1` [Example 79, 3-(6-Cyano-2-pyridyl)-5-phenyl-1-(3-pyridyl)-1,2-dihydropyridin-2-one] displayed a concentration for half-maximal inhibition (IC50) of 2600 nM.

For the molecule `N#Cc1ccccc1-c1cc(-c2ccccn2)cn(Cc2ccccc2)c1=O` [Example 31, 3-(2-Cyanophenyl)-5-(2-pyridyl)-1-benzyl-1,2-dihydropyridin-2-one], the concentration for half-maximal inhibition (IC50) under setting [1] turned out to be 100 nM.

As to `COc1ccccc1-c1cc(-c2ccccn2)cn(-c2ccccc2)c1=O` [Example 55, 3-(2-Methoxyphenyl)-5-(2-pyridyl)-1-phenyl-1,2-dihydropyridin-2-one], the IC50 under setting [1] is 800 nM.

For `CN1CCN(c2ccc(-n3cc(-c4ccccn4)cc(-c4ccccc4C#N)c3=O)cn2)CC1` [Example 121, 3-(2-Cyanophenyl)-5-(2-pyridyl)-1-[2-(4-methylpiperazin-1-yl)-pyridin-5-yl]-1,2-dihydropyridin-2-one], under setting [1], the IC50 came out at 600 nM.

Take `N#Cc1ccccc1-c1cc(-c2ccccn2)cn(-c2ccc([N+](=O)[O-])cc2)c1=O` [Example 252, 3-(2-Cyanophenyl)-1-(4-nitrophenyl)-5-(2-pyridyl)-1,2-dihydropyridin-2-one]: under setting [3], the IC50 was 300 nM.

In the case of `CN(C)CCCOc1cccc(-n2cc(-c3ccccn3)cc(-c3ccccc3C#N)c2=O)c1` [Example 243, 3-(2-Cyanophenyl)-1-[3-(dimethylaminopropyloxy)phenyl]-5-(2-pyridyl)-1,2-dihydropyridin-2-one], the concentration for half-maximal inhibition (IC50) under setting [3] was determined as 1200 nM.

Regarding `CS(=O)(=O)Nc1cccc(-n2cc(-c3ccccn3)cc(-c3ccccc3C#N)c2=O)c1` [Example 10, 3-(2-Cyanophenyl)-5-(2-pyridyl)-1-(3-methylsulfonylaminophenyl)-1,2-dihydropyridin-2-one], the half-maximal inhibitory concentration (IC50) under setting [1] amounted to 50 nM.

`CCCCNC(=O)Nc1ccc(-c2cc(-c3ccccn3)cn(-c3ccccc3)c2=O)cc1` [Example 308, 3-{4[N-(N′-butylureylenyl)phenyl]}-1-phenyl-5-(2-pyridyl)-1,2-dihydropyridin-2-one] had a 50% inhibitory concentration (IC50) under setting [2] of 1600 nM.

`COc1ccccc1-c1cc(-c2ccccn2)cn(-c2cccnc2)c1=O` [Example 129, 3-(2-Methoxyphenyl)-5-(2-pyridyl)-1-(3-pyridyl)-1,2-dihydropyridin-2-one]: inhibition under setting [1] was half-maximal at 2600 nM (IC50).

On to `COc1ccncc1-n1cc(-c2ccccn2)cc(-c2cccnc2F)c1=O` [Example 86, 3-(2-Fluoro-3-pyridyl)-5-(2-pyridyl)-1-(4-methoxy-3-pyridyl)-1,2-dihydropyridin-2-one], for which the IC50 under setting [1] is 1900 nM.

In the case of `CCOC(=O)C=Cc1sccc1-c1cc(-c2ccccn2)cn(-c2ccccc2)c1=O` [Example 398, 3-[(2-Ethoxycarbonyl)vinylthiophen-3-yl]-5-(2-pyridyl)-1-phenyl-1,2-dihydropyridin-2-one], the IC50 under setting [2] was 200 nM.

For `NC(=O)c1ccccc1-c1cc(-c2ccccn2)cn(-c2ccccc2)c1=O` [Example 140, 3-(2-Aminocarbonylphenyl)-5-(2-pyridyl)-1-phenyl-1,2-dihydropyridin-2-one], the 50% inhibitory concentration (IC50) under setting [3] was found to be 6600 nM.

The molecule `O=c1c(-c2ccc(Cl)cc2Cl)cc(-c2ccccn2)cn1-c1cccnc1` [Example 131, 3-(2.4-Dichlorophenyl)-5-(2-pyridyl)-1-(3-pyridyl)-1,2-dihydropyridin-2-one] had a concentration for half-maximal inhibition (IC50) under setting [1] of 3700 nM.

In the case of `O=c1c(-c2cccc(O)c2)cc(-c2ccccn2)cn1-c1ccccc1` [Example 237, 3-(3-Hydroxyphenyl)-1-phenyl-5-(2-pyridyl)-1,2-dihydropyridin-2-one], the IC50 under setting [3] was 1500 nM.

Under setting [1], `N#Cc1ccccc1-c1cc(-c2ccccn2)cn(-c2ccc(C(F)(F)F)cc2)c1=O` [Example 108, 3-(2-Cyanophenyl)-5-(2-pyridyl)-1-(4-trifluoromethylphenyl)-1,2-dihydropyridin-2-one] displayed an IC50 of 30 nM.

For the molecule `CC(=O)Nc1ccccc1-c1cc(-c2ccccn2)cn(-c2ccccc2)c1=O` [Example 230, 3-[2-(Acetylamino)phenyl]-1-phenyl-5-(2-pyridyl)-1,2-dihydropyridin-2-one], the half-inhibitory concentration (IC50) under setting [3] is 4000 nM.

On to `O=c1c(-c2ccccc2Cl)cc(-c2nc3ccccc3o2)cn1-c1ccccc1` [Example 184, 3-(2-Chlorophenyl)-5-(2-benzoxazolyl)-1-phenyl-1,2-dihydropyridin-2-one], for which the IC50 under setting [3] was 2300 nM.

`O=C1C=C(c2cc(-c3ccccn3)cn(-c3ccccc3)c2=O)CCC1` [Example 268, 3-(3-Oxo-1-cyclohexen-1-yl)-1-phenyl-5-(2-pyridyl)-1,2-dihydropyridin-2-one]: the concentration for half-maximal inhibition (IC50) under setting [3] was determined as 4200 nM.

Consider `O=c1c(-c2cncnc2)cc(-c2ccccn2)cn1-c1ccccc1` [Example 257, 1-Phenyl-3-(5-pyrimidinyl)-5-(2-pyridyl)-1,2-dihydropyridin-2-one], for which the concentration for half-maximal inhibition (IC50) under setting [3] stood at 3700 nM.

Regarding `O=c1c(C2C3CC4CC(C3)CC2C4)cc(-c2ccccn2)cn1-c1ccccc1` (stereo not shown) [Example 387, 3-(2-Adamantyl)-5-(2-pyridyl)-1-phenyl-1,2-dihydropyridin-2-one], the midpoint of inhibition under setting [2], the IC50, lay at 7000 nM.

For the molecule `O=c1c(-c2cnccn2)cc(-c2ccccn2)cn1-c1ccccc1` [Example 253, 1-Phenyl-3-(2-pyrazyl)-5-(2-pyridyl)-1,2-dihydropyridin-2-one], under setting [3], the IC50 is 4700 nM.

Consider `N#Cc1ccccc1-c1cc(NCc2ccccc2)cn(-c2ccccc2)c1=O` [Example 313, 5-Benzylamino-3-(2-cyanophenyl)-1-phenyl-1,2-dihydropyridin-2-one], for which, under setting [2], inhibition was half-maximal at 5900 nM (IC50).

Consider `COc1ccc(-n2cc(-c3ccccn3)cc(-c3ccccc3C#N)c2=O)cn1` [Example 109, 3-(2-Cyanophenyl)-5-(2-pyridyl)-1-(2-methoxypyridyn-5-yl)-1,2-dihydropyridin-2-one], for which, under setting [1], inhibition was half-maximal at 10 nM (IC50).

`CN(C)CCOc1cccc(-n2cc(-c3ccccn3)cc(-c3ccccc3C#N)c2=O)c1` [Example 239, 3-(2-Cyanophenyl)-1-[3-(dimethylaminoethoxy)phenyl]-5-(2-pyridyl)-1,2-dihydropyridin-2-one]: under setting [3], the IC50 was found to be 300 nM.

For the origin of these results see patent publication US6949571B2, “1,2-dihydropyridine compounds, process for preparation of the same and use thereof” (Eisai Co., Ltd., priority 2000, dated 2005).
